Source: US20210283107A1, “Methods to Expand the Spectrum of Gram-Positive Antibiotics” (NORTH CAROLINA STATE UNIVERSITY, priority 2016, published 2021)
Values after ≈ are worked out from the molar mass of the structure shown. Values joined by “and” are separate entries in the source; they are usually repeats but may differ in a detail not shown here. Identical values can stand only once. Like-named read-outs stand apart in the source and are kept apart here.

Tests used:
[1] = test system: A. baumannii strain 5075 (AB5075); experiment: Broth microdilution MIC determination of compound alone; assay type: cell-based; conditions: Acinetobacter baumannii
In short: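 MIC by twofold serial dilution in cation-adjusted Mueller-Hinton broth, inoculum 5×10^5 CFU/mL from 6 h day cultures, top concentration 200 μM (64 μg/mL). Incubated stationary at 37° C. for 16 hours; MIC taken as lowest concentration with no visible growth.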

[2] = test system: A. baumannii mutant AB1310; experiment: Dose dependent resistance suppression (antibiotic MIC with compound) in AB1310; assay type: cell-based, Acinetobacter baumannii
Procedure: There was no notable reduction in antibiotic MIC observed with either compound and both strains 522 and 1310. […] Even at the highest concentration, no potentiation was observed.
(§1) Day Cultures (6 h) were subcultured to 5×10^5 CFU/mL in cation adjusted Mueller-Hinton broth (CAMHB). […] One milliliter of the resulting solution was aliquoted into a separate culture tube and was dosed with antibiotic so that the resulting concentration was the highest desirable concentration to be tested. Bacteria treated with antibiotic alone were used as a control. Row one of a 96-well plate was filled with 200 μL of the antibiotic/compound solution, and the remaining rows were filled with 100 μL of the remaining 4 mL bacterial subculture. The wells in row one were mixed five times before 100 μL was transferred to the following row (row two). Row two was then mixed five times, and 100 μL was transferred to row three. This process was repeated until the second to last row had been reached. The last row is left unexposed to antibiotic in order to serve as a negative control. The antibiotic only treated bacteria was plated by aliquoting 200 μL of the treated bacteria into row one and filling the remaining rows with untreated bacteria from the original bacteria subculture. The rows were mixed in the same way as described above. Plates were covered with Glad Press n'Seal and were incubated under stationary conditions at 37° C. for 16 hours. MIC values were recorded as the lowest concentration at which no bacterial growth was observed. Fold reductions were determined by comparison of the compound treated wells with the antibiotic only treated control wells.

[3] = test system: A. baumannii mutant AB522; experiment: MIC against Tn-seq transposon mutant AB522; assay type: cell-based; conditions: Acinetobacter baumannii
Procedure: During individual MIC screening, two mutants, AB522 and AB1310, were identified due to their increased sensitivity to the three macrolide antibiotics and vancomycin when compared to AB 5075 (Table 17).
Day Cultures (6 h) were subcultured to 5×10^5 CFU/mL in cation adjusted Mueller-Hinton broth (CAMHB). Aliquots (1 mL) were placed in culture tubes, and compound was added from 100 mM stock solutions, such that the compound concentration equaled the highest concentration tested (200 μM or 64 μg/mL). Samples were then aliquoted (200 μL) into the first row of wells of a 96-well plate, with all remaining wells being filled with 100 μL of initial bacterial subculture. The wells in row one were mixed five times before 100 μL was transferred to the following row (row two). Row two was then mixed five times, and 100 μL was transferred to row three. This processed was repeated until the final row had been mixed. This process provided a serial dilution of the compound. Plates were covered with Glad Press n'Seal and were incubated under stationary conditions at 37° C. for 16 hours. MIC values were recorded as the lowest concentration at which no bacterial growth was observed.

A. baumannii strain 5197 = experiment: Potentiation of clarithromycin and vancomycin against clinical isolate; assay type: cell-based, Acinetobacter baumannii; conditions: with compound at 30 μM
Procedure: (§2) As previously stated, A. baumannii 5075 was chosen for these studies due to its virulence and multidrug resistance, but to further analyze the activity of our lead compounds, 23 A. baumannii clinical isolates obtained from Walter Reed Army Institute of Research (WRAIR) were tested.
as §1

A. baumannii strain 8967 = experiment: as above; assay type: cell-based, Acinetobacter baumannii; conditions: with compound at 30 μM
Procedure: as §2, §1

A. baumannii strain 3785 = experiment: as above; assay type: cell-based, Acinetobacter baumannii; conditions: with compound at 30 μM
Procedure: as §2, §1

A. baumannii strain 4857 = experiment: as above; assay type: cell-based, Acinetobacter baumannii; conditions: with compound at 30 μM
Procedure: as §2, §1

A. baumannii strain 4795 = experiment: as above; assay type: cell-based, Acinetobacter baumannii; conditions: with compound at 30 μM
Procedure: as §2, §1

A. baumannii strain 4026 = experiment: as above; assay type: cell-based, Acinetobacter baumannii; conditions: with compound at 30 μM
Procedure: as §2, §1

A. baumannii strain 4052 = experiment: as above; assay type: cell-based, Acinetobacter baumannii; conditions: with compound at 30 μM
Procedure: as §2, §1

A. baumannii strain 5711 = experiment: as above; assay type: cell-based, Acinetobacter baumannii; conditions: with compound at 30 μM
Procedure: as §2, §1

A. baumannii strain 4027 = experiment: as above; assay type: cell-based, Acinetobacter baumannii; conditions: with compound at 30 μM
Procedure: as §2, §1

A. baumannii strain 3806 = experiment: as above; assay type: cell-based, Acinetobacter baumannii; conditions: with compound at 30 μM
Procedure: as §2, §1

A. baumannii strain 4878 = experiment: as above; assay type: cell-based, Acinetobacter baumannii; conditions: with compound at 30 μM
Procedure: as §2, §1

A. baumannii strain 4957 = experiment: as above; assay type: cell-based, Acinetobacter baumannii; conditions: with compound at 30 μM
Procedure: as §2, §1

A. baumannii strain 3560 = experiment: as above; assay type: cell-based, Acinetobacter baumannii; conditions: with compound at 30 μM
Procedure: as §2, §1

AB 5075 = experiment: Backlight assay for membrane permeability; assay type: cell-based, Acinetobacter baumannii; conditions: AB5075
Procedure: The assay was initially performed at 10, 20 and 30 μM with compounds 1 and 4 (Table 16). […] When the concentration is lowered to 20 μM, the percent of membrane disrupted also decreases to 78% and 83% respectively. When further decreasing the concentration to 10 μM, the membrane disruption decreases to 39 and 44% respectively. Due to the similar structure and lack of potentiation activity, compound 25 was screened at 10, 20 and 30 μM to compare membrane permeability with that of active compounds. The percent disruption was less than seen with compounds 1 and 4 being 53, 54 and 60% respectively.

## Nc1nc(-c2ccc(NC(=O)c3cc(Cl)cc(Cl)c3)cc2)c[nH]1 [Compound 1]
[1]
  MIC: 100 µM (≈ 34.7 µg/mL)
[2]; compound Conc. Tested 2 (μM)
  Azithromycin MIC: 4 µg/mL
  Clarithromycin MIC: 1 µg/mL
  Erythromycin MIC: 4 µg/mL
  Vancomycin MIC: 64 µg/mL
[2]; compound Conc. Tested 3 (μM)
  Azithromycin MIC: 4 µg/mL
  Clarithromycin MIC: 1 µg/mL
  Erythromycin MIC: 2 µg/mL
  Vancomycin MIC: 64 µg/mL
[2]; compound Conc. Tested 4 (μM)
  Azithromycin MIC: 4 µg/mL
  Clarithromycin MIC: 0.5 µg/mL
  Erythromycin MIC: 4 µg/mL
  Vancomycin MIC: 64 µg/mL
[2]; compound Conc. Tested 5 (μM)
  Azithromycin MIC: 4 µg/mL
  Clarithromycin MIC: 0.5 µg/mL
  Erythromycin MIC: 2 µg/mL
  Vancomycin MIC: 32 µg/mL
[3]
  MIC: 12.5 µM (≈ 4.34 µg/mL)
A. baumannii strain 5197
  Clarithromycin MIC: 0.5 µg/mL
  Vancomycin MIC: 16 µg/mL
A. baumannii strain 8967
  Clarithromycin MIC: 0.25 µg/mL
  Vancomycin MIC: 4 µg/mL
A. baumannii strain 3785
  Clarithromycin MIC: 0.5 µg/mL
  Vancomycin MIC: 1 µg/mL
A. baumannii strain 4857
  Clarithromycin MIC: 0.5 µg/mL
  Vancomycin MIC (μg/mL): Toxic
A. baumannii strain 4795
  Clarithromycin MIC: 0.5 µg/mL
  Vancomycin MIC: 4 µg/mL
A. baumannii strain 4026
  Clarithromycin MIC: 0.5 µg/mL
  Vancomycin MIC: 2 µg/mL
A. baumannii strain 4052
  Clarithromycin MIC: ≤0.25 µg/mL
  Vancomycin MIC: 4 µg/mL
A. baumannii strain 5711
  Clarithromycin MIC: 0.5 µg/mL
  Vancomycin MIC: 8 µg/mL
A. baumannii strain 4027
  Clarithromycin MIC: ≤0.25 µg/mL
  Vancomycin MIC: 1 µg/mL
A. baumannii strain 3806
  Clarithromycin MIC: 0.25 µg/mL
  Vancomycin MIC: 2 µg/mL
A. baumannii strain 4878
  Clarithromycin MIC: 0.5 µg/mL
  Vancomycin MIC: 2 µg/mL
A. baumannii strain 4957
  Clarithromycin MIC: 0.5 µg/mL
  Vancomycin MIC: 8 µg/mL
A. baumannii strain 3560
  Clarithromycin MIC: 0.5 µg/mL
  Vancomycin MIC: 0.5 µg/mL
AB 5075; compound at 10 μM
  Disrupted bacterial membrane (%): 39% and 38.8%
AB 5075; compound at 20 μM
  Disrupted bacterial membrane (%): 78%

## Nc1nc(-c2ccc(NC(=O)c3cc(Br)cc(Br)c3)cc2)c[nH]1 [Compound 4]
[1]; compound alone, AB5075, read-out: MIC
  MIC: 100 µM (≈ 43.6 µg/mL)
[2]; compound Conc. Tested 2 (μM)
  Azithromycin MIC: 4 µg/mL
  Clarithromycin MIC: 2 µg/mL
  Erythromycin MIC: 4 µg/mL
  Vancomycin MIC: 64 µg/mL
[2]; compound Conc. Tested 3 (μM)
  Azithromycin MIC: 4 µg/mL
  Clarithromycin MIC: 1 µg/mL
  Erythromycin MIC: 2 µg/mL
  Vancomycin MIC: 32 µg/mL
[2]; compound Conc. Tested 4 (μM)
  Azithromycin MIC: 4 µg/mL
  Clarithromycin MIC: 1 µg/mL
  Erythromycin MIC: 2 µg/mL
  Vancomycin MIC: 32 µg/mL
[2]; compound Conc. Tested 5 (μM)
  Azithromycin MIC: 4 µg/mL
  Clarithromycin MIC: 0.5 µg/mL
  Erythromycin MIC: 2 µg/mL
  Vancomycin MIC: 32 µg/mL
[3]
  MIC: 12.5 µM (≈ 5.45 µg/mL)
A. baumannii strain 5197
  Clarithromycin MIC: 0.5 µg/mL
  Vancomycin MIC: 8 µg/mL
A. baumannii strain 8967
  Clarithromycin MIC: 0.25 µg/mL
  Vancomycin MIC: 8 µg/mL
A. baumannii strain 3785
  Clarithromycin MIC: 0.5 µg/mL
  Vancomycin MIC: 128 µg/mL
A. baumannii strain 4857
  Clarithromycin MIC: 0.5 µg/mL
  Vancomycin MIC (μg/mL): Toxic
A. baumannii strain 4795
  Clarithromycin MIC: 0.5 µg/mL
  Vancomycin MIC: 4 µg/mL
A. baumannii strain 4026
  Clarithromycin MIC: 1 µg/mL
  Vancomycin MIC: 16 µg/mL
A. baumannii strain 4052
  Clarithromycin MIC: ≤0.25 µg/mL
  Vancomycin MIC: 64 µg/mL
A. baumannii strain 5711
  Clarithromycin MIC: 0.5 µg/mL
  Vancomycin MIC: 64 µg/mL
A. baumannii strain 4027
  Clarithromycin MIC: 0.25 µg/mL
  Vancomycin MIC: 32 µg/mL
A. baumannii strain 3806
  Clarithromycin MIC: ≤0.125 µg/mL
  Vancomycin MIC: 32 µg/mL
A. baumannii strain 4878
  Clarithromycin MIC: 1 µg/mL
  Vancomycin MIC: 1 µg/mL
A. baumannii strain 4957
  Clarithromycin MIC: 0.5 µg/mL
  Vancomycin MIC: 8 µg/mL
A. baumannii strain 3560
  Clarithromycin MIC: 0.5 µg/mL
  Vancomycin MIC: 32 µg/mL
AB 5075; compound at 10 μM
  Disrupted bacterial membrane (%): 44%
AB 5075; compound at 20 μM
  Disrupted bacterial membrane (%): 83% and 83.2%
AB 5075; compound at 30 μM
  Disrupted bacterial membrane (%): 87.4%
